Test results from US20130158362A1 (INFACARE PHARMACEUTICAL CORPORATION, priority 2011, published 2013).

Test system: total serum bilirubin (TSB)
Assay: Phase 2b trial: total serum bilirubin (TSB), adjusted and unadjusted, change from baseline
Type: in vivo, human
Design: total serum bilirubin / total serum bilirubin, Delta (change from baseline) / Change from baseline of total serum bilirubin: unit not given here
Details: for change from baseline in adjusted TSB, LS mean difference versus placebo, MMRM / change from baseline in adjusted TSB, LS means (SEM), MMRM: observed case
Protocol: Three cohorts of subjects were recruited. This clinical study was designed to evaluate safety and efficacy parameters in each cohort.
Scheduled assessments (including TSB) occurred before treatment and at 0.75 and 2 hours (or 1.5 and 3 hours, depending on PK blood sampling assignment); 6, 12, 24, 48, and 72 hours; and 14 and 30 (except TSB) days after treatment or early termination.
The primary efficacy endpoint was the change in adjusted TSB from baseline to 48 hours after treatment. The adjusted TSB was a calculation of the percentage variance of the TSB level from the age specific threshold for PT initiation per the AAP Guidelines, i.e., an indication of the distance below the PT threshold by time.
The Secondary Efficacy Endpoints were the change from baseline in unadjusted TSB at 48 hours after treatment, change from baseline in adjusted and unadjusted TSB at various other time points after treatment, percent change from baseline in unadjusted TSB, proportion of subjects who require PT/exchange transfusion (ET), time to PT/ET, duration of PT and time to hospital discharge.
Intent-to-treat population (ITT): Defined as all subjects who were randomly assigned treatment in the clinical study, had received IMP, and had at least 1 post baseline TSB measurement during the first 48 hours after treatment. Subjects were summarized based on randomized treatment.
Analysis of Efficacy Parameters: The primary efficacy analysis applied the analysis of covariance (ANCOVA) method to determine if there was a significant difference between treatment groups in change in adjusted TSB levels from baseline to 48 hours post baseline after controlling for the effects of gestational age and adjusted baseline TSB levels. If assumptions of ANCOVA appeared to be violated, a Wilcoxon rank-sum test could be performed instead. Time-to-event variables were analyzed using the Kaplan-Meier method, and Kaplan-Meier survival curves were presented.

[1] = 4.5 mg/kg IM, 24 h, ITT, LOCF, ANCOVA
[2] = 4.5 mg/kg IM, 48 h/early termination, ITT, LOCF
[3] = 4.5 mg/kg IM, 48 h, ITT, LOCF, ANCOVA
[4] = 4.5 mg/kg IM, 48 hours, intent to treat, preliminary data
[5] = 4.5 mg/kg IM, 72 h, ITT, LOCF, ANCOVA
[6] = 4.5 mg/kg IM, 14 days/early termination, ITT, LOCF
[7] = 4.5 mg/kg IM, 14 days/early termination, ITT, LOCF, ANCOVA
[8] = 4.5 mg/kg versus the placebo group, 48 Hours/Early termination, PP Population, ANCOVA
[9] = 4.5 mg/kg, 48 Hours/Early termination, PP Population, LOCF
[10] = 4.5 mg/kg, 6 hrs, unadjusted TSB, ITT Population
[11] = 4.5 mg/kg, 12 hrs, unadjusted TSB, ITT Population
[12] = 4.5 mg/kg, 24 hrs, unadjusted TSB, ITT Population
[13] = 4.5 mg/kg, 48 hrs, unadjusted TSB, ITT Population
[14] = 4.5 mg/kg, baseline, PP Population
[15] = 4.5 mg/kg, baseline, unadjusted TSB, ITT Population

tin IV mesoporphyrin IX dichloride [Stannsoporfin]
change from baseline in adjusted TSB, Median (4.5 mg/kg IM, 24 h, ITT, LOCF): −11.15%
change from baseline in unadjusted TSB, Mean (SD) (4.5 mg/kg IM, 24 h, ITT, LOCF): 0.93 (1.990) mg/dL
change from baseline in unadjusted TSB, Median (4.5 mg/kg IM, 24 h, ITT, LOCF): 1.20 mg/dL
unadjusted TSB, Mean (SD) (4.5 mg/kg IM, 24 h, ITT, LOCF): 10.52 (2.668) mg/dL
unadjusted TSB, Median (4.5 mg/kg IM, 24 h, ITT, LOCF): 9.66 mg/dL
change from baseline in adjusted TSB, LS mean (SEM) [1]: −11.59 (5.674) %
change from baseline in adjusted TSB, LS mean difference versus placebo [1]: −11.50%
change from baseline in unadjusted TSB, LS Mean (SEM) [1]: 1.05 (0.665) mg/dL
change from baseline in unadjusted TSB, LS Mean Difference versus placebo [1]: -1.70 mg/dL
change from baseline in adjusted TSB, LS mean difference versus placebo, MMRM (4.5 mg/kg IM, 24 h, ITT): −14.70%
change from baseline in adjusted TSB, LS means (SEM), MMRM (4.5 mg/kg IM, 24 h, ITT): −16.26 (5.495) %
adjusted TSB, Mean (SD) [2]: −34.14 (14.733) %
adjusted TSB, Median [2]: −32.00%
change from baseline in adjusted TSB, Mean (SD) (4.5 mg/kg IM, 48 h, ITT, LOCF): −24.95 (19.261) %
change from baseline in adjusted TSB, Median (4.5 mg/kg IM, 48 h, ITT, LOCF): −19.95%
change from baseline in unadjusted TSB, Mean (SD) (4.5 mg/kg IM, 48 h, ITT, LOCF): 0.80 (2.788) mg/dL
change from baseline in unadjusted TSB, Median (4.5 mg/kg IM, 48 h, ITT, LOCF): 1.45 mg/dL
unadjusted TSB, Mean (SD) (4.5 mg/kg IM, 48 h, ITT, LOCF): 10.39 (2.650) mg/dL
unadjusted TSB, Median (4.5 mg/kg IM, 48 h, ITT, LOCF): 10.35 mg/dL
change from baseline in adjusted TSB, LS mean (SEM) (primary endpoint) [3]: −16.51 (6.925) %
change from baseline in adjusted TSB, LS mean difference versus placebo [3]: −14.93%
change from baseline in unadjusted TSB, LS Mean (SEM) [3]: 1.60 (1.020) mg/dL
change from baseline in unadjusted TSB, LS Mean Difference versus placebo [3]: -2.63 mg/dL
change from baseline in adjusted TSB, LS mean (SEM) (primary endpoint) (4.5 mg/kg IM, 48 h, ITT, LOCF, ANCOVA, listed as stannsoporfin): 16.5%
change from baseline in adjusted TSB, LS mean difference versus placebo, MMRM (4.5 mg/kg IM, 48 h, ITT): −20.66%
change from baseline in adjusted TSB, LS means (SEM), MMRM (4.5 mg/kg IM, 48 h, ITT): −27.34 (7.287) %
total serum bilirubin [4]: 10.39 ± 2.7
total serum bilirubin, Delta (change from baseline) [4]: 0.80 ± 2.8
total serum bilirubin, Delta (change from baseline) (4.5 mg/kg IM, 48 hours, treated per protocol, preliminary data): 0.04 ± 3.1
adjusted TSB, Mean (SD) (4.5 mg/kg IM, 72 h/early termination, ITT, LOCF): −38.38 (16.637) %
change from baseline in adjusted TSB, Mean (SD) (4.5 mg/kg IM, 72 h, ITT, LOCF): −29.19 (19.225) %
change from baseline in adjusted TSB, Median (4.5 mg/kg IM, 72 h, ITT, LOCF): −21.45%
change from baseline in unadjusted TSB, Mean (SD) (4.5 mg/kg IM, 72 h, ITT, LOCF): 0.15 (3.740) mg/dL
change from baseline in unadjusted TSB, Median (4.5 mg/kg IM, 72 h, ITT, LOCF): 1.90 mg/dL
unadjusted TSB, Mean (SD) (4.5 mg/kg IM, 72 h, ITT, LOCF): 9.73 (3.672) mg/dL
unadjusted TSB, Median (4.5 mg/kg IM, 72 h, ITT, LOCF): 11.15 mg/dL
change from baseline in adjusted TSB, LS mean (SEM) [5]: −19.00 (8.184) %
change from baseline in adjusted TSB, LS mean difference versus placebo [5]: −14.25%
change from baseline in unadjusted TSB, LS Mean (SEM) [5]: 1.38 (1.305) mg/dL
change from baseline in unadjusted TSB, LS Mean Difference versus placebo [5]: -3.57 mg/dL
change from baseline in unadjusted TSB, Mean (SD) [6]: −4.28 (3.828) mg/dL
change from baseline in unadjusted TSB, Median [6]: -5.73 mg/dL
unadjusted TSB, Mean (SD) [6]: 5.31 (4.596) mg/dL
unadjusted TSB, Median [6]: 2.98 mg/dL
change from baseline in unadjusted TSB, LS Mean (SEM) [7]: −3.02 (1.524) mg/dL
change from baseline in unadjusted TSB, LS Mean Difference versus placebo [7]: -0.72 mg/dL
48 Hours/Early termination change from baseline in unadjusted TSB, LS mean difference [8]: -2.82 mg/dL
P-value of LS mean difference, change from baseline in unadjusted TSB [8]: 0.030
48 Hours/Early termination change from baseline in unadjusted TSB, Max [9]: 3.6 mg/dL
48 Hours/Early termination change from baseline in unadjusted TSB, Mean (SD) [9]: 0.40 (3.111) mg/dL
48 Hours/Early termination change from baseline in unadjusted TSB, Median [9]: 0.70 mg/dL
48 Hours/Early termination change from baseline in unadjusted TSB, Min [9]: -3.4 mg/dL
48 Hours/Early termination unadjusted TSB, Max [9]: 13.4 mg/dL
48 Hours/Early termination unadjusted TSB, Mean (SD) [9]: 9.88 (2.807) mg/dL
48 Hours/Early termination unadjusted TSB, Median [9]: 10.00 mg/dL
48 Hours/Early termination unadjusted TSB, Min [9]: 5.6 mg/dL
48 Hours/Early termination change from baseline in unadjusted TSB, LS mean (SEM) (4.5 mg/kg, 48 Hours/Early termination, PP Population, LOCF, ANCOVA): 1.11 (1.095) mg/dL
6 hrs Percent Change from Baseline in TSB, Max [10]: 26.4%
6 hrs Percent Change from Baseline in TSB, Mean (SD) [10]: 17.33 (5.373) %
6 hrs Percent Change from Baseline in TSB, Min [10]: 10.7%
6 hrs TSB, Max [10]: 14.8 mg/dL
6 hrs TSB, Mean (SD) [10]: 11.31 (2.237) mg/dL
6 hrs TSB, Min [10]: 7.6 mg/dL
12 hrs Percent Change from Baseline in TSB, Max [11]: 29.2%
12 hrs Percent Change from Baseline in TSB, Mean (SD) [11]: 20.16 (6.326) %
12 hrs Percent Change from Baseline in TSB, Min [11]: 9.8%
12 hrs TSB, Max [11]: 14.8 mg/dL
12 hrs TSB, Mean (SD) [11]: 11.54 (2.067) mg/dL
12 hrs TSB, Min [11]: 8.0 mg/dL
24 hrs Percent Change from Baseline in TSB, Max [12]: 43.8%
24 hrs Percent Change from Baseline in TSB, Mean (SD) [12]: 10.75 (23.016) %
24 hrs Percent Change from Baseline in TSB, Median [12]: 12.15%
24 hrs Percent Change from Baseline in TSB, Min [12]: −14.8%
24 hrs TSB, Max [12]: 14.0 mg/dL
24 hrs TSB, Mean (SD) [12]: 10.52 (2.668) mg/dL
24 hrs TSB, Min [12]: 7.7 mg/dL
48 hrs Percent Change from Baseline in TSB, Max [13]: 56.3%
48 hrs Percent Change from Baseline in TSB, Mean (SD) [13]: 14.87 (33.167) %
48 hrs Percent Change from Baseline in TSB, Min [13]: −37.7%
48 hrs TSB, Max [13]: 13.4 mg/dL
48 hrs TSB, Mean (SD) [13]: 10.69 (2.708) mg/dL
48 hrs TSB, Min [13]: 5.6 mg/dL
mean TSB levels (4.5 mg/kg, 14 days after treatment (text, not LOCF table)): 2.94 mg/dL
Baseline unadjusted TSB, Max [14]: 12.8 mg/dL
Baseline unadjusted TSB, Mean (SD) [14]: 9.47 (2.319) mg/dL
Baseline unadjusted TSB, Median [14]: 9.00 mg/dL
Baseline unadjusted TSB, Min [14]: 6.4 mg/dL
Baseline TSB, Max [15]: 12.8 mg/dL
Baseline TSB, Mean (SD) [15]: 9.59 (1.911) mg/dL
Baseline TSB, Min [15]: 6.4 mg/dL
time after administration at which an effect begins (bilirubin levels, FIG. 7): 6 to 12 h
